In general, IC50 refers to the concentration needed to halve the response being measured. As a reminder, the residual activity is the share of the control activity or signal that is left under treatment.

The target in test [1] is T1, Protein-S-isoprenylcysteine O-methyltransferase (Homo sapiens, UniProt O60725). The test can be described thus: Inhibition of human Icmt by methanol vapour diffusion assay.
In test [2] the target is T1, Protein-S-isoprenylcysteine O-methyltransferase. Briefly: Inhibition of human Icmt in Saccharomyces cerevisiae cell membrane relative to control by SPA; values are per cent of control. On the set-up: concentration or dose not given beside the values.

T1 sequence (O60725 whole entry, the tested form may be a part): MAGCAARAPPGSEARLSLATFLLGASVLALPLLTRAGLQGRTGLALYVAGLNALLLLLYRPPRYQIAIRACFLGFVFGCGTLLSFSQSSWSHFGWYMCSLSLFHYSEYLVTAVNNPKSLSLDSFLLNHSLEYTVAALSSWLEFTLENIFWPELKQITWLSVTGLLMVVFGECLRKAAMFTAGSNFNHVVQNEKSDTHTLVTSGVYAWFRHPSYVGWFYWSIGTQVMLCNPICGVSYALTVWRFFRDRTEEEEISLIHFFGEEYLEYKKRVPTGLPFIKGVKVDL

Consider `CC(C)=CCC/C(C)=C/CC/C(C)=C/CSC[C@H](NC(=O)c1cc2ccccc2s1)C(=O)O`, for which the IC50 in test [1] amounted to 20.3 µM. The same molecule returned a residual activity in test [2] of 28%.
For `CC(C)=CCC/C(C)=C/CC/C(C)=C/CSC[C@H](NC(=O)c1ccc([N+](=O)[O-])cc1)C(=O)O`, in that order: 16.6 µM and 50.1%.
`CC(C)=CCC/C(C)=C/CC/C(C)=C/CSC[C@H](NC(=O)c1cc(Cl)cc(Cl)c1)C(=O)O`: the IC50 in test [1] amounted to 23 µM. Besides, the residual activity in test [2] came out at 33.5%.
In turn, `CC(C)=CCC/C(C)=C/CC/C(C)=C/CSC[C@H](NC(=O)c1cc([N+](=O)[O-])cc([N+](=O)[O-])c1)C(=O)O` showed an IC50 in test [1] of 14.3 µM. Further, in test [2], the residual activity worked out at 37.1%.
In test [1], `COc1ccc(-c2ccc(C(=O)N[C@@H](CSC/C=C(\C)CC/C=C(\C)CCC=C(C)C)C(=O)O)o2)cc1` registered an IC50 of 17.4 µM. This molecule gave a residual activity in test [2] of 35.1%.

Source of the values: ChEMBL document CHEMBL1145318, “Amide-substituted farnesylcysteine analogs as inhibitors of human isoprenylcysteine carboxyl methyltransferase” (Bioorg Med Chem Lett, 2006).
